# Source: patent US9452185B2, “Mesenchymal stem cells and supports for tissue regeneration, repair and reconstruction” (THE TEXAS A&M UNIVERSITY SYSTEM, priority 2009, dated 2016)
# “Also recorded” adds a separate entry of the source.
# Key:
# Type in all cases: cell-based, human
# [1] = tested on: hMSCs; experiment: Alkaline phosphatase (ALP) activity of hMSCs in osteogenic media
# Protocol: For non-mineralizing osteogenic differentiation, hMSCs were plated in 12-well plates at 100 cells cm^−2. Upon reaching about 70% confluency, the media was changed to osteogenic base media (OBM) containing 50 μg mL^−1 ascorbic acid and 5 mM β-glycerol phosphate and either GW9662 or DMSO. Media was changed every 2 days for 8-10 days following measurement of ALP activity. For this purpose, the monolayer was washed with PBS and then with ALP reaction buffer (100 mM Tris-HCl, pH 9, containing 100 mM KCl and 1 mM MgCl2). One half mL of ALP buffer then 0.5 mL p-nitrophenol phosphate (PNPP) was rapidly added to the wells. ALP activity was measured as the rate of PNPP conversion to p-nitrophenolate by monitoring the absorbance at 405 nm every 30 seconds for 9 minutes using a plate reader. The rates were normalized against cell number and statistically analyzed using one-way analysis of variance (ANOVA) and Tukey post test for multiple comparisons or by Student's t-test, for single, unrelated comparisons.
# Early osteogenic differentiation and alkaline phosphatase assays. MSCs were plated in 6-well plates at an initial plating density of 100 cells per cm^2 and cultured in standard complete media for 6 days until semi-confluence (approximately 5,000 cells per cm^2). Osteogenic base media consisting of complete media containing 5 mM β-GP and 50 μg mL^−1 ascorbate-2-phosphate and the appropriate inhibitor or vehicle was then used to induce early osteogenic differentiation. Assays were allowed to proceed for 8-10 days with changes of media every 2 days. ALP assays were performed as previously described (Gunn et al., 2006, Stem Cells 24:986-991).
# In order to characterize the influence of 7AIPM on osteogenic differentiation, hMSC's from two donors were cultured as described elsewhere herein with the addition of varying concentrations of the compound or vehicle to the media. Samples of the media were collected daily for analysis. These samples were analyzed for the presence of OPG and Dkk-1 using ELISA. Alkaline phosphatase activity of the monolayers and cell numbers were measured using a spectrophotometer.
# [2] = tested on: hMSCs; experiment: Membrane integrin expression by flow cytometric analysis; design: CD49a x-mean / CD49b x-mean / CD49c x-mean / CD49e x-mean / CD51 x-mean / CD29 x-mean / CD36 x-mean / CD44 x-mean: unit not given here
# Protocol: For immunophenotyping, MSCs were recovered by brief trypsinization and incubated with one or more fluorophore-tagged antibodies or respective isotype controls for 30 min in a phosphate-buffered saline (PBS) containing 2% (v/v) FBS. After about three washes, a minimum of 20,000 cells were analyzed on a flow cytometer and data processed using machine-compatible software. Antibodies against the following cell surface antigens were used, including CD11b (clone BEAR1), CD14 (RM052), CD19 (J3-119), CD29 (MAR4), CD34 (581), CD36 (FA6.152), CD44 ([…]-26), CD45 (J.33), CD49a (SR84), CD49b (Gi9), CD49c (C3 II.1), CD49e (IIA1), CD51 (23C6), CD73 (AD2), CD79a (HM47), CD90 (Thy-1/310), CD105 (IG2), CD146 (TEA1/34), CD166 (3[…] (Tu39).
# [3] = tested on: hMSCs; experiment: ECM production by hMSC monolayers (nodules, recovered volume, calcium)
# Protocol: Micro computer aided tomography (μCT) briefly included scanning of identical calvaria over 360° using a 50 kV beam with a camera resolution of 12 μm. Images were captured every 0.4° with flat field correction and frame averaging enabled. Using mock specimens, grayscale ranges were calibrated over intact bone, partially formed bone and radiolucent tissue over a fixed linear range (corresponding to approximately −100 to +1000 Hounsfield units). Axial reconstructions were generated from the scans and quantified using a appropriate CT software. Once again, each reconstruction parameter was identical and performed over a fixed and linear intensity range in each case so as to reproducibly distinguish bone, partial bone and radiolucent tissue. In each case, ring artifact, smoothing, and beam hardening corrections were enabled. Three dimensional renderings for qualitative appraisal were generated using one or more volume software. Measurements of recovered matrix volume were performed using similar parameters, but the beam power was lowered to 30 kV. For extracellular matrix (ECM) production, hMSC monolayers were treated for 8 days with GW9662 or control OBM media in the usual manner described previously. Mineralizing osteogenic media was then added for a further 10 days with changes every 2 days. Hereafter, all volumes refer to a single 150 cm^2 monolayer culture. Monolayers were washed in PBS and frozen at −80° C. to disrupt cell membranes, thawed to ambient temperature and scraped from the culture plate. Recovered cells and ECM were then pelleted by centrifugation (1,800 G) and suspended in 10 mL of lysis buffer consisting of PBS containing 0.1% (v/v) Triton X100, 1 mM MgCl2, 10 μg mL^−1 DNAse I and 10 μg mL^−1 RNAseA. […] Calcium levels in matrices described were determined using an acid hydrolysis ArsenazoIII method previously described by others. […] Colorimetric determination of calcium was performed by addition of Arsenazo III compound and monitoring the change in absorbance at 595 nm using a plate reader.
# [4] = osteogenic media without dexamethasone, 8 days
# [5] = osteogenic medium lacking dex, 8 days
smiles,measurement,setting,value
"O=C1Nc2cc(Br)ccc2/C1=C1/Nc2ccccc2/C1=N\O [BIO, bromo-indirubin-3′-mono-oxime]",ALP activity,[1]; [4],induced
same,dose at which ALP activity dropped back to control levels,[1]; [5],exceeding 400 nM
same,dose of maximal effect on ALP activity,[1]; [5],100 to 200 nM
"O=C(Nc1ccccc1)c1cc([N+](=O)[O-])ccc1Cl [GW9662, 2-chloro-5-nitro-N-phenyl-benzamide]",CD29 % pos,[2]; GW-treatment,99.97%
same,CD29 x-mean,[2]; GW-treatment,135
same,CD36 % pos,[2]; GW-treatment,0.68%
same,CD36 x-mean,[2]; GW-treatment,1.89
same,CD44 % pos,[2]; GW-treatment,96.24%
same,CD44 x-mean,[2]; GW-treatment,7.84
same,CD49a % pos,[2]; GW-treatment,87.07%
same,CD49a x-mean,[2]; GW-treatment,3.28
same,CD49b % pos,[2]; GW-treatment,43.09%
same,CD49b x-mean,[2]; GW-treatment,5.69
same,CD49c % pos,[2]; GW-treatment,99.93%
same,CD49c x-mean,[2]; GW-treatment,21.80
same,CD49e % pos,[2]; GW-treatment,99.99%
same,CD49e x-mean,[2]; GW-treatment,81.50
same,CD51 % pos,[2]; GW-treatment,99.92%
same,CD51 x-mean,[2]; GW-treatment,15.30
same,CD36 on the surface of hMSCs,[2]; irrespective of GW9662 treatment,No substantial expression
same,calcium content in recovered ECM,[3]; GW9662 vs DMSO,elevated calcium levels; also recorded: substantially more calcium mineral than controls
same,volume of ECM recovered,[3]; GW9662 vs vehicle treated cells,greater volume of ECM; also recorded: substantial increase in the yield
same,ECM nodules by phase contrast microscopy,"[3]; hMSC cultures, GW9662 treatment",distinct formation of nodules; also recorded: increased
same,ALP activity,[1]; hMSCs in osteogenic media with GW9662 vs DMSO,dose-dependent increase; also recorded: substantially upregulated; also recorded: substantially up-regulated; also recorded: increased
same,ALP activity,[1]; [4],induced
same,dose at which ALP activity dropped back to control levels,[1]; [5],> 1.0 µM
